± gives the expanded uncertainty stated by the source.
Key:
[1] = xn = mol fraction of the nth substance listed; settings: 101 kPa, Liquid; for viscosity: Capillary tube (Ostwald / Ubbelohde) method; for mass density: Vibrating tube method
[2] = refractive index (Na D-line) (dimensionless); xn = mol fraction of the nth substance listed; settings: 101 kPa, Liquid, Standard Abbe refractometry

CC#N [acetonitrile] + CC(C)O
Settings | mass density, [1] [kg/m3] | refractive index, [2] | viscosity, [1] [mPa·s]
293.15 K, x1 = 0.0496 | 784.97 ± 0.31 | 1.3757 ± 0.0021 | 1.972 ± 0.021
293.15 K, x1 = 0.0906 | 784.72 ± 0.31 | 1.3751 ± 0.0021 | 1.688 ± 0.018
293.15 K, x1 = 0.1529 | 784.31 ± 0.31 | 1.3737 ± 0.0021 | 1.368 ± 0.015
293.15 K, x1 = 0.2022 | 783.9 ± 0.31 | 1.3726 ± 0.0021 | 1.176 ± 0.013
293.15 K, x1 = 0.2783 | 783.36 ± 0.31 | 1.3705 ± 0.0021 | 0.9608 ± 0.01
293.15 K, x1 = 0.3678 | 782.71 ± 0.31 | 1.3677 ± 0.002 | 0.7912 ± 0.0084
293.15 K, x1 = 0.4768 | 782.02 ± 0.31 | 1.364 ± 0.002 | 0.6502 ± 0.0068
293.15 K, x1 = 0.6132 | 781.53 ± 0.31 | 1.359 ± 0.002 | 0.51 ± 0.0057
293.15 K, x1 = 0.7714 | 781.13 ± 0.31 | 1.3528 ± 0.002 | 0.4156 ± 0.0048
293.15 K, x1 = 0.9207 | 781.26 ± 0.31 | 1.3469 ± 0.0021 | 0.3716 ± 0.0042
293.15 K, x1 = 1 | 782.04 ± 0.31 | 1.3436 ± 0.0021 | 0.3542 ± 0.004
298.15 K, x1 = 0.0496 | 780.76 ± 0.31 | 1.3733 ± 0.0021 | 1.691 ± 0.018
298.15 K, x1 = 0.0906 | 780.3 ± 0.3 | 1.3724 ± 0.0021 | 1.461 ± 0.015
298.15 K, x1 = 0.1529 | 779.7 ± 0.3 | 1.3713 ± 0.0021 | 1.207 ± 0.013
298.15 K, x1 = 0.2022 | 779.7 ± 0.3 | 1.3702 ± 0.0021 | 1.044 ± 0.011
298.15 K, x1 = 0.2783 | 779.2 ± 0.3 | 1.3687 ± 0.0021 | 0.8677 ± 0.0089
298.15 K, x1 = 0.3678 | 777.65 ± 0.31 | 1.3667 ± 0.0021 | 0.7248 ± 0.0075
298.15 K, x1 = 0.4768 | 778.79 ± 0.31 | 1.3635 ± 0.0021 | 0.6062 ± 0.0064
298.15 K, x1 = 0.6132 | 776.2 ± 0.31 | 1.3591 ± 0.0021 | 0.4735 ± 0.0051
298.15 K, x1 = 0.7714 | 775.79 ± 0.31 | 1.3528 ± 0.002 | 0.384 ± 0.0043
298.15 K, x1 = 0.9207 | 775.95 ± 0.31 | 1.3452 ± 0.0021 | 0.3499 ± 0.0039
298.15 K, x1 = 1 | 776.64 ± 0.31 | 1.3411 ± 0.0021 | 0.3369 ± 0.0038
303.15 K, x1 = 0.0496 | 776.32 ± 0.31 | 1.3715 ± 0.0021 | 1.474 ± 0.016
303.15 K, x1 = 0.0906 | 775.84 ± 0.31 | 1.3707 ± 0.0021 | 1.288 ± 0.013
303.15 K, x1 = 0.1529 | 775.13 ± 0.31 | 1.3694 ± 0.0021 | 1.069 ± 0.011
303.15 K, x1 = 0.2022 | 774.54 ± 0.31 | 1.3684 ± 0.0021 | 0.9367 ± 0.0097
303.15 K, x1 = 0.2783 | 773.97 ± 0.31 | 1.3666 ± 0.0021 | 0.7975 ± 0.0083
303.15 K, x1 = 0.3678 | 772.88 ± 0.31 | 1.3641 ± 0.0021 | 0.6615 ± 0.007
303.15 K, x1 = 0.4768 | 771.84 ± 0.31 | 1.3608 ± 0.0021 | 0.5492 ± 0.0059
303.15 K, x1 = 0.6132 | 771.13 ± 0.31 | 1.3561 ± 0.0021 | 0.4429 ± 0.0048
303.15 K, x1 = 0.7714 | 770.52 ± 0.31 | 1.35 ± 0.0021 | 0.3617 ± 0.004
303.15 K, x1 = 0.9207 | 770.59 ± 0.31 | 1.3433 ± 0.0021 | 0.3311 ± 0.0038
303.15 K, x1 = 1 | 771.21 ± 0.31 | 1.339 ± 0.0021 | 0.3254 ± 0.0037
308.15 K, x1 = 0.0496 | 771.86 ± 0.31 | 1.3694 ± 0.0021 | 1.296 ± 0.013
308.15 K, x1 = 0.0906 | 771.31 ± 0.31 | 1.3687 ± 0.0021 | 1.15 ± 0.012
308.15 K, x1 = 0.1529 | 770.57 ± 0.31 | 1.3679 ± 0.0021 | 0.9576 ± 0.0098
308.15 K, x1 = 0.2022 | 769.92 ± 0.31 | 1.367 ± 0.002 | 0.846 ± 0.0087
308.15 K, x1 = 0.2783 | 768.98 ± 0.31 | 1.3657 ± 0.002 | 0.7168 ± 0.0075
308.15 K, x1 = 0.3678 | 767.8 ± 0.31 | 1.3637 ± 0.002 | 0.6057 ± 0.0063
308.15 K, x1 = 0.4768 | 766.44 ± 0.31 | 1.3605 ± 0.002 | 0.5051 ± 0.0054
308.15 K, x1 = 0.6132 | 765.75 ± 0.31 | 1.3557 ± 0.002 | 0.4111 ± 0.0045
308.15 K, x1 = 0.7714 | 765.26 ± 0.31 | 1.3491 ± 0.002 | 0.3442 ± 0.0038
308.15 K, x1 = 0.9207 | 765.18 ± 0.31 | 1.3417 ± 0.0021 | 0.3202 ± 0.0036
308.15 K, x1 = 1 | 765.75 ± 0.31 | 1.3371 ± 0.0021 | 0.3082 ± 0.0036

CCCCC(C)O (centres undefined) [2-hexanol] + CC#N
Settings | mass density, [1] [kg/m3] | refractive index, [2] | viscosity, [1] [mPa·s]
293.15 K, x2 = 0 | 814.08 ± 0.3 | 1.4135 ± 0.0021 | 5.155 ± 0.061
293.15 K, x2 = 0.0964 | 812.14 ± 0.31 | 1.4103 ± 0.002 | 3.491 ± 0.044
293.15 K, x2 = 0.1813 | 810.22 ± 0.31 | 1.4077 ± 0.002 | 2.696 ± 0.03
293.15 K, x2 = 0.2574 | 808.34 ± 0.31 | 1.4051 ± 0.002 | 2.128 ± 0.024
293.15 K, x2 = 0.3436 | 806.07 ± 0.31 | 1.4014 ± 0.002 | 1.684 ± 0.018
293.15 K, x2 = 0.4483 | 803.11 ± 0.31 | 1.3972 ± 0.002 | 1.276 ± 0.014
293.15 K, x2 = 0.5398 | 800.33 ± 0.31 | 1.3917 ± 0.002 | 1.006 ± 0.011
293.15 K, x2 = 0.6495 | 796.76 ± 0.31 | 1.3837 ± 0.002 | 0.7676 ± 0.0082
293.15 K, x2 = 0.758 | 792.88 ± 0.31 | 1.3739 ± 0.002 | 0.582 ± 0.0064
293.15 K, x2 = 0.8733 | 788.19 ± 0.31 | 1.3621 ± 0.0021 | 0.4444 ± 0.0049
293.15 K, x2 = 0.9579 | 784.29 ± 0.31 | 1.351 ± 0.0021 | 0.3758 ± 0.0042
298.15 K, x2 = 0 | 810.14 ± 0.31 | 1.4116 ± 0.0021 | 4.1 ± 0.05
298.15 K, x2 = 0.0964 | 808.14 ± 0.31 | 1.4096 ± 0.002 | 2.933 ± 0.033
298.15 K, x2 = 0.1813 | 806.14 ± 0.31 | 1.4078 ± 0.002 | 2.284 ± 0.025
298.15 K, x2 = 0.2574 | 804.19 ± 0.31 | 1.4054 ± 0.002 | 1.84 ± 0.02
298.15 K, x2 = 0.3436 | 801.82 ± 0.31 | 1.4022 ± 0.002 | 1.475 ± 0.015
298.15 K, x2 = 0.4483 | 798.72 ± 0.31 | 1.3975 ± 0.002 | 1.133 ± 0.012
298.15 K, x2 = 0.5398 | 795.82 ± 0.31 | 1.3924 ± 0.002 | 0.9062 ± 0.0094
298.15 K, x2 = 0.6495 | 792.09 ± 0.31 | 1.3837 ± 0.002 | 0.6995 ± 0.0073
298.15 K, x2 = 0.758 | 788.02 ± 0.31 | 1.373 ± 0.002 | 0.5384 ± 0.0057
298.15 K, x2 = 0.8733 | 783.08 ± 0.31 | 1.3595 ± 0.002 | 0.4184 ± 0.0046
298.15 K, x2 = 0.9579 | 779.02 ± 0.31 | 1.348 ± 0.0021 | 0.3583 ± 0.004
303.15 K, x2 = 0 | 806.13 ± 0.31 | 1.4093 ± 0.0021 | 3.41 ± 0.04
303.15 K, x2 = 0.0964 | 804.04 ± 0.31 | 1.4082 ± 0.002 | 2.491 ± 0.027
303.15 K, x2 = 0.1813 | 801.94 ± 0.31 | 1.4064 ± 0.002 | 1.967 ± 0.021
303.15 K, x2 = 0.2574 | 799.91 ± 0.31 | 1.4044 ± 0.002 | 1.61 ± 0.017
303.15 K, x2 = 0.3436 | 797.49 ± 0.31 | 1.4021 ± 0.002 | 1.301 ± 0.014
303.15 K, x2 = 0.4483 | 794.38 ± 0.31 | 1.3979 ± 0.002 | 1.017 ± 0.01
303.15 K, x2 = 0.5398 | 791.33 ± 0.31 | 1.3925 ± 0.002 | 0.8212 ± 0.0085
303.15 K, x2 = 0.6495 | 787.45 ± 0.31 | 1.3839 ± 0.002 | 0.6409 ± 0.0067
303.15 K, x2 = 0.758 | 783.07 ± 0.31 | 1.374 ± 0.002 | 0.5036 ± 0.0053
303.15 K, x2 = 0.8733 | 777.74 ± 0.31 | 1.3596 ± 0.002 | 0.3943 ± 0.0043
303.15 K, x2 = 0.9579 | 773.37 ± 0.31 | 1.345 ± 0.002 | 0.3411 ± 0.0038
308.15 K, x2 = 0 | 802.06 ± 0.31 | 1.4077 ± 0.0021 | 2.819 ± 0.034
308.15 K, x2 = 0.0964 | 799.97 ± 0.31 | 1.4069 ± 0.002 | 2.134 ± 0.022
308.15 K, x2 = 0.1813 | 797.84 ± 0.31 | 1.4061 ± 0.002 | 1.708 ± 0.018
308.15 K, x2 = 0.2574 | 795.74 ± 0.31 | 1.4049 ± 0.002 | 1.42 ± 0.015
308.15 K, x2 = 0.3436 | 793.18 ± 0.31 | 1.4026 ± 0.002 | 1.155 ± 0.012
308.15 K, x2 = 0.4483 | 789.88 ± 0.31 | 1.3979 ± 0.002 | 0.9154 ± 0.0094
308.15 K, x2 = 0.5398 | 786.73 ± 0.31 | 1.3925 ± 0.002 | 0.7511 ± 0.0077
308.15 K, x2 = 0.6495 | 782.83 ± 0.31 | 1.3844 ± 0.002 | 0.5933 ± 0.0061
308.15 K, x2 = 0.758 | 778.36 ± 0.31 | 1.3745 ± 0.002 | 0.4724 ± 0.005
308.15 K, x2 = 0.8733 | 772.84 ± 0.31 | 1.361 ± 0.002 | 0.3759 ± 0.0041
308.15 K, x2 = 0.9579 | 768.23 ± 0.31 | 1.3469 ± 0.002 | 0.3263 ± 0.0037

From the NIST ThermoML archive (doi:10.1016/j.tca.2009.06.015)
